Data taken from patent US9481677B2, “Biaryl ether sulfonamides and their use as therapeutic agents” (XENON PHARMACEUTICALS INC., priority 2011, dated 2016).

Each compound was assayed against Nav1.7 (Homo sapiens (Human), UniProt Q15858) (assay: Patch voltage clamp electrophysiology, block of inactivated-state Nav1.7 in HEK-293 cells). Details: affinity for the inactivated state; HEK-293 cells with β1 subunit; held at -60 mV; read-out: NaV1.7 (IC50 class).
Assay type: cell-based
Method: Patch voltage clamp electrophysiology allows for the direct measurement and quantification of block of voltage-gated sodium channels (Nav's), and allows the determination of the time- and voltage-dependence of block which has been interpreted as differential binding to the resting, open, and inactivated states of the sodium channel (Hille, B., Journal of General Physiology (1977), 69: 497-515).
The following patch voltage clamp electrophysiology studies were performed on representative compounds of the invention using human embryonic kidney cells (HEK), permanently transfected with an expression vector containing the full-length cDNA coding for the desired human sodium channel α-subunit, grown in culture media containing 10% FBS, 1% PSG, and 0.5 mg/mL G418 at 37° C. with 5% CO2. […] Nav1.7 and Nav1.5 cDNAs (NM_002977 and AC137587; SCN5A, respectively) were stably expressed in HEK-293 cells. The β1 subunit was coexpressed only in the Nav1.7 cell line.
Sodium currents were measured using the patch clamp technique in the whole-cell configuration using either a PatchXpress automated voltage clamp or manually using an Axopatch 200B (Axon Instruments) or Model 2400 (A-M systems) amplifier. […] The pipette was filled with a solution comprised of: 5 mM NaCl, 10 mM CsCl, 120 mM CsF, 0.1 mM CaCl2, 2 mM MgCl2, 10 mM HEPES, 10 mM EGTA; and adjusted to pH 7.2 with CsOH. The external solution had the following composition: 140 mM NaCl, 5 mM KCl, 2 mM CaCl2, 1 mM MgCl2, 10 mM HEPES; and adjusted to pH 7.4 with NaOH. In some studies, the external sodium was reduced by equimolar replacement with choline. Osmolarity in the CsF internal and NaCl external solutions was adjusted to 300 mOsm/kg and 310 mOsm/kg with glucose, respectively. All recordings were performed at ambient temperature in a bath chamber with a volume of 150 μL. Control sodium currents were measured in 0.5% DMSO. Controls and representative compounds of the invention were applied to the recording chamber through a 4-pinch or 8-pinch valve bath perfusion system manufactured by ALA Scientific Instruments.
Currents were recorded at 40 kHz sampling frequency, filtered at […], and stored using a Digidata-1322A analogue/digital interface with the pClamp software (Axon Instruments). Series resistance compensation was applied (60-80%). […] All statistics in this study are given as mean±SD.
The membrane potential was maintained at a voltage where inactivation of the channel is complete (which was −60 mV for both Nav1.7 and Nav1.5). The voltage is then stepped back to a very negative (Vhold=−150 mV) voltage for 20 ms and then a test pulse is applied to quantify the compound block. […] The percent decrease in sodium current following wash-on of compound was taken as the percent block of sodium channels.
The Example numbers provided in Table 1 and Table 2 correspond to the Examples herein.

Sequence of Nav1.7 (Q15858 other isoform, or with tags, fused parts or gaps): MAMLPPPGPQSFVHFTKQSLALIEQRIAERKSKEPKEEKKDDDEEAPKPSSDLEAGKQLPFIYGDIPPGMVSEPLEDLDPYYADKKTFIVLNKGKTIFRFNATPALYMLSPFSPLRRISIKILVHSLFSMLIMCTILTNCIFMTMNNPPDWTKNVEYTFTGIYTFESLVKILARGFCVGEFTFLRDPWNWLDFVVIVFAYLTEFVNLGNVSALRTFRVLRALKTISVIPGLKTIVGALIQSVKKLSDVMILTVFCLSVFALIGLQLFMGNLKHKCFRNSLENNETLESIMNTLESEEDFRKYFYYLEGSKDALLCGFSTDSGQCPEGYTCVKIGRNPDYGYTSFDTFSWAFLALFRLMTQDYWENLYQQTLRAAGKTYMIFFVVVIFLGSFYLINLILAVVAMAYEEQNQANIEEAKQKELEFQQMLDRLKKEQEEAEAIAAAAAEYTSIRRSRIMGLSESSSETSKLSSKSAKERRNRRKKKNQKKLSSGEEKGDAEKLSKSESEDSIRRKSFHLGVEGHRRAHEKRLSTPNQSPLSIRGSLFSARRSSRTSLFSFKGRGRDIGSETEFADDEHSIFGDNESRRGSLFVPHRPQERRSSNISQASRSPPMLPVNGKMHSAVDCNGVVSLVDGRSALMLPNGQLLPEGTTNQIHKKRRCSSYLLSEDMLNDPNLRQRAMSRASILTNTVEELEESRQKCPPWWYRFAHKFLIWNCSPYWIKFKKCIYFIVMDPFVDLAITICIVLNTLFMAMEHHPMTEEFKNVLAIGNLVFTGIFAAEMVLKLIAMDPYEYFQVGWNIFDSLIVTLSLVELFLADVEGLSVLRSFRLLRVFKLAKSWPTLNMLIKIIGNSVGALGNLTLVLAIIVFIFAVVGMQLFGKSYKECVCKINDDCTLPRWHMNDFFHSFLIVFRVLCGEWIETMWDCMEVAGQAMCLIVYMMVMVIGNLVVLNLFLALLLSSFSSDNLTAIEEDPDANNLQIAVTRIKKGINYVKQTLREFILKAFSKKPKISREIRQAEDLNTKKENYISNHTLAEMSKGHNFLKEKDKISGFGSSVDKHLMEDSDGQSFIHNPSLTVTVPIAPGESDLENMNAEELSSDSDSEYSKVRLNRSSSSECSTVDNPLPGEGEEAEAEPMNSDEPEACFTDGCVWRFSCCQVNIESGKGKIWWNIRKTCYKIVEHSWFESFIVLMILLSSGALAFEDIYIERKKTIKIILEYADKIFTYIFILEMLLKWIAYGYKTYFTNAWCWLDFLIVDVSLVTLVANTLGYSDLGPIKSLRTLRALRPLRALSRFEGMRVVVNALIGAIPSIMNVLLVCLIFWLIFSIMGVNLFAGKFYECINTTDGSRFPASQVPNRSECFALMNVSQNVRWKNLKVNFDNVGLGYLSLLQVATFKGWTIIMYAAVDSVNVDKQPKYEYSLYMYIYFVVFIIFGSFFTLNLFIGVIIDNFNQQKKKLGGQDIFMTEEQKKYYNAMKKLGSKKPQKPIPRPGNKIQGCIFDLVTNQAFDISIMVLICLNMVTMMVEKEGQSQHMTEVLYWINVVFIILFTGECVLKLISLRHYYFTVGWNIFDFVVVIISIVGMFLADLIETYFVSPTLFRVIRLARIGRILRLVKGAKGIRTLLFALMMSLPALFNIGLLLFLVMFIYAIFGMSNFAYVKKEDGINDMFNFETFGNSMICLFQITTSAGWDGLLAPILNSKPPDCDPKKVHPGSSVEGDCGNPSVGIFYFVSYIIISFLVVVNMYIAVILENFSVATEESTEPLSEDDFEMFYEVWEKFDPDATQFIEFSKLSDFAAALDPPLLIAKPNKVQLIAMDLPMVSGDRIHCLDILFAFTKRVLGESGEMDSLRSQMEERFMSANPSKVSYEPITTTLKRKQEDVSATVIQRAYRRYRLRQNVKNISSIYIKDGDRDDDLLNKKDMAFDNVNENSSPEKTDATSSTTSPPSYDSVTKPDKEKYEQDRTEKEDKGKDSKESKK
Sequence of Nav1.7 (Q07699 19-218 partner): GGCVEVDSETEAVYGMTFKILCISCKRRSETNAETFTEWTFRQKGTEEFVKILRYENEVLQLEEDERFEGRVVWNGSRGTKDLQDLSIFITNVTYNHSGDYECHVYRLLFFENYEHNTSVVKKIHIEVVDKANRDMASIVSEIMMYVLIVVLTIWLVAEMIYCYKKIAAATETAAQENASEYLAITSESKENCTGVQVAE

IC50, ≤ 100 nM:
O=C1Cc2cc(-c3cc(Cl)ccc3Oc3cc(F)c(S(=O)(=O)Nc4ncns4)cc3F)ccc2N1 [Example 77, 4-(4-chloro-2-(2-oxoindolin-5-yl)phenoxy)-2,5-difluoro-N-(1,2,4-thiadiazol-5-yl)benzenesulfonamide]
O=c1[nH]c2cc(-c3cc(Cl)ccc3Oc3ccc(S(=O)(=O)Nc4ncccn4)cc3F)ccc2o1 [Example 79, 4-(4-chloro-2-(2-oxo-2,3-dihydrobenzo[d]oxazol-5-yl)phenoxy)-3-fluoro-N-(pyrimidin-2-yl)benzenesulfonamide]
Nc1noc2ccc(-c3cc(F)ccc3Oc3cc(F)c(S(=O)(=O)Nc4ncns4)cc3F)cc12 [Example 80, 4-(2-(3-aminobenzo[d]isoxazol-5-yl)-4-fluorophenoxy)-2,5-difluoro-N-(1,2,4-thiadiazol-5-yl)benzenesulfonamide]
Cc1ccc(Oc2cc(F)c(S(=O)(=O)Nc3ncns3)cc2F)c(-c2ccc3oc(=O)[nH]c3c2)c1 [Example 82, 2,5-difluoro-4-(4-methyl-2-(2-oxo-2,3-dihydrobenzo[d]oxazol-5-yl)phenoxy)-N-(1,2,4-thiadiazol-5-yl)benzenesulfonamide]
CN(C)c1noc2ccc(-c3cc(Cl)ccc3Oc3cc(F)c(S(=O)(=O)Nc4ncns4)cc3F)cc12 [Example 98, 4-(4-chloro-2-(3-(dimethylamino)benzo[d]isoxazol-5-yl)phenoxy)-2,5-difluoro-N-(1,2,4-thiadiazol-5-yl)benzenesulfonamide]
